The text below walks through data of patent EP0942911B1, “BENZOPYRANOPYRROLE AND BENZOPYRANOPYRIDINE ALPHA-1 ADRENERGIC COMPOUNDS” (Abbott Laboratories, priority 1996, dated 1998).

As usually defined, the Ki is the equilibrium dissociation constant of an inhibitor or competing ligand from its target.

Common to all, as to assay: biochemical
The target of test [1] is T1, α-1d adrenoreceptor (Rattus norvegicus, UniProt P23944).
T1 sequence (P23944 1-561): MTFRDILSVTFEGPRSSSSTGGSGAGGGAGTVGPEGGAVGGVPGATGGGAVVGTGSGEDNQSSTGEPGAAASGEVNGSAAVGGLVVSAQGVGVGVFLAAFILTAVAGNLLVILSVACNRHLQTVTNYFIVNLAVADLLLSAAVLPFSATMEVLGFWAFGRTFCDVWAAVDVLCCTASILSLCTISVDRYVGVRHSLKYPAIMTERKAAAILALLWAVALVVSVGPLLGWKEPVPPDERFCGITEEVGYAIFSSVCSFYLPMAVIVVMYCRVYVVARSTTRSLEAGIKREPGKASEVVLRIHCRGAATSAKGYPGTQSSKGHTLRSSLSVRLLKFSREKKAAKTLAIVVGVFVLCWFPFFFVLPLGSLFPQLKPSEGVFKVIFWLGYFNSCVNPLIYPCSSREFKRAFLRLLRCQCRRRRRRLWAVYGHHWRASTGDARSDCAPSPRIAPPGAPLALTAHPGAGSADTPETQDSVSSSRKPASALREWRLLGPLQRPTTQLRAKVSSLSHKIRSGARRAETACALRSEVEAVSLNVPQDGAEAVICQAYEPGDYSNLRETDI
Format: binding. Conditions: [3H]-prazosin radioligand; cloned receptor in LTK cell membranes; read-out: Radioligand Binding (Ki, nM) 1d (Rat). Summed up:
(§1)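 Radioactivity counted by liquid scintillation after radioligand binding to membranes. Receptors: cloned α-1a, α-1b, α-1d stably expressed in LTK mouse fibroblasts (G418 selection, SV40 early promoter); rat submaxillary gland membranes for pharmacologically defined α-1A.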

The target of test [2] is T2, α-1a adrenoreceptor (Bos taurus, UniProt P18130).
T2 sequence (P18130 1-466): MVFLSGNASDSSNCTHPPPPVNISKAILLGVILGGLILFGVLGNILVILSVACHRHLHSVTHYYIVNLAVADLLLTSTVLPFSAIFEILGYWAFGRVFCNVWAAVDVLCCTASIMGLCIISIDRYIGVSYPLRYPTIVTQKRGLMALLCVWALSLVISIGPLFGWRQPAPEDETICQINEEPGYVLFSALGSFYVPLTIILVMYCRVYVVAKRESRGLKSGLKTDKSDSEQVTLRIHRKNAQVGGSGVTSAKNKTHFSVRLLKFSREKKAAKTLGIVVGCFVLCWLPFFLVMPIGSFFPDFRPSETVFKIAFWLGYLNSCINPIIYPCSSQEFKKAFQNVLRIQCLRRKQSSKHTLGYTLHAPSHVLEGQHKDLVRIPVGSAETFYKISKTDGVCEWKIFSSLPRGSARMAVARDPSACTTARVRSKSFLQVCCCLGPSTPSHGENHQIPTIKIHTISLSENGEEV
Format: binding, bovine. As to conditions: [3H]-prazosin radioligand; cloned receptor in LTK cell membranes; read-out: Radioligand Binding (Ki, nM) 1a (Bovine). Summed up: as §1

The target of test [3] is T3, α-1A adrenoreceptor (rat submaxillary gland) (Rattus norvegicus, UniProt P43140).
T3 sequence (P43140 1-466): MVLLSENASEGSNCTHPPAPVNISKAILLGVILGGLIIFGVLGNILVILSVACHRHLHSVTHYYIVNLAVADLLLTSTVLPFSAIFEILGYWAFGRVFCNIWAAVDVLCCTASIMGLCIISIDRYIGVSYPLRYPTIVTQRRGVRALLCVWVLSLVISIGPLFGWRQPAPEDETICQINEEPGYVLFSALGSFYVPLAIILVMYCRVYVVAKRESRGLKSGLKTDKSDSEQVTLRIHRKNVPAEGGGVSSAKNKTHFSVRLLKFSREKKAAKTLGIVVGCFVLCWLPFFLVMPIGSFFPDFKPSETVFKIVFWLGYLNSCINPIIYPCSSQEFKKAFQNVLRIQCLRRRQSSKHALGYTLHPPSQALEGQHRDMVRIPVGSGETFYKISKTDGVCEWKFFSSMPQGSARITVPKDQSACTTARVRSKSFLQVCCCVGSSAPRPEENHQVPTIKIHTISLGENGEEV
Format: binding. Conditions: [3H]-prazosin radioligand; rat submaxillary gland membranes; read-out: Radioligand Binding (Ki, nM) 1A (Rat). Summed up: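 Membranes were prepared from rat submaxillary glands as the α-1A adrenoreceptor source. Competition binding followed Greengrass and Bremner, with bound radioligand measured by scintillation counting.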

Structures can show the parent of a compound that is named as a salt.

`COc1cccc2c1[C@@H]1CN(CCCCn3c(=O)[nH]c4c(sc5cnccc54)c3=O)C[C@@H]1CO2` [Example 29, 3-[4-((3aR,9bR)-cis-9-Methoxy-1,2,3,3a,4,9b-hexahydro-[1]-benzopyrano[3,4-c]pyrrol-2-yl)butyl]-pyrido[4',3':4,5]thieno[3,2-d]pyrimidine-2,4(1H,3H)-dione dihydrochloride]: the inhibitory constant (Ki) came to 0.466 nM in test [1], 0.095 nM in test [2] and 0.252 nM in test [3].
On to `COc1ccc2sc3c(=O)n(CCCCN4C[C@@H]5COc6cccc(OC)c6[C@@H]5C4)c(=O)[nH]c3c2n1` [Example 30, 3-[4-((3aR,9bR)-cis-9-Methoxy-1,2,3,3a,4,9b-hexahydro-[1]-benzopyrano[3,4-c]pyrrol-2-yl)butyl]-8-methoxy-pyrido[2',3':4,5]thieno[3,2-d]pyrimidine-2,4(1H,3H)-dione hydrochloride], for which the Ki in test [1] stood at 0.222 nM; in test [2], 0.066 nM; in test [3], 0.264 nM.
In the case of `COc1cnc2sc3c(=O)n(CCCCN4C[C@@H]5COc6cccc(OC)c6[C@@H]5C4)c(=O)[nH]c3c2n1` [Example 31, 3-[4-((3aR,9bR)-cis-9-Methoxy-1,2,3,3a,4,9b-hexahydro-[1]-benzopyrano[3,4-c]pyrrol-2-yl)butyl]-8-methoxy-pyrazino[2',3':4,5]thieno[3,2-d]pyrimidine-2,4(1H,3H)-dione hydrochloride], the Ki was determined as 0.344 nM in test [1], 0.06 nM in test [2] and 0.224 nM in test [3].
The matching figures for `COc1cccc2c1[C@@H]1CN(CCCCn3c(=O)[nH]c4c(sc5ncccc54)c3=O)C[C@@H]1CO2` [Example 34, 3-[4-((3aR,9bR)-cis-9-Methoxy-1,2,3,3a,4,9b-hexahydro-[1]-benzopyrano[3,4-c]pyrrol-2-yl)butyl]-pyrido[3',2':4,5]thieno[3,2-d]pyrimidine-2,4(1H,3H)-dione hydrochloride]: 0.339 nM, 0.079 nM and 0.474 nM.
For `COc1cccc2c1[C@@H]1CN(CCCCn3c(=O)[nH]c4c(sc5nc(C)ccc54)c3=O)C[C@@H]1CO2` [Example 35, 3-[4-((3aR,9bR)-cis-9-Methoxy-1,2,3,3a,4,9b-hexahydro-[1]-benzopyrano[3,4-c]pyrrol-2-yl)butyl]-7-methyl-pyrido[3',2':4,5]thieno[3,2-d]pyrimidine-2,4(1H,3H)-dione hydrochloride], the Ki in test [1] came out at 0.436 nM; in test [2], 0.057 nM; in test [3], 0.312 nM.
With `COc1cccc2c1[C@@H]1CN(CCCCn3c(=O)[nH]c4c(sc5nccc(OC)c54)c3=O)C[C@@H]1CO2` [Example 36, 3-[4-((3aR,9bR)-cis-9-Methoxy-1,2,3,3a,4,9b-hexahydro-[1]-benzopyrano[3,4-c]pyrrol-2-yl)butyl]-9-methoxy-pyrido[3',2':4,5]thieno[3,2-d]pyrimidine-2,4(1H,3H)-dione hydrochloride], the Ki is 0.36 nM in test [1], 0.124 nM in test [2] and 0.539 nM in test [3].
The like results for `COc1cccc2c1[C@@H]1CN(CCCCn3c(=O)[nH]c4c(sc5ccc(Cl)nc54)c3=O)C[C@@H]1CO2` [Example 37, 3-[4-((3aR,9bR)-cis-9-Methoxy-1,2,3,3a,4,9b-hexahydro-[1]-benzopyrano[3,4-c]pyrrol-2-yl)butyl]-8-chloro-pyrido[2',3':4,5]thieno[3,2-d]pyrimidine-2,4(1H,3H)-dione hydrochloride] were, in that order, 0.195 nM, 0.069 nM and 0.264 nM.
The like results for `COc1cccc2c1[C@@H]1CN(CCCCn3c(=O)[nH]c4c(sc5cc(Cl)cnc54)c3=O)C[C@@H]1CO2` [Example 38, 3-[4-((3aR,9bR)-cis-9-Methoxy-1,2,3,3a,4,9b-hexahydro-[1]-benzopyrano[3,4-c]pyrrol-2-yl)butyl]-7-chloro-pyrido[2',3':4,5]thieno[3,2-d]pyrimidine-2,4(1H,3H)-dione hydrochloride] were, in that order, 0.897 nM, 0.057 nM and 0.376 nM.
Regarding `COc1cccc2c1[C@@H]1CN(CCCCn3c(=O)[nH]c4c(sc5ncc(-c6ccccc6)nc54)c3=O)C[C@@H]1CO2` [Example 39, 3-[4-((3aR,9bR)-cis-9-Methoxy-1,2,3,3a,4,9b-hexahydro-[1]-benzopyrano[3,4-c]pyrrol-2-yl)butyl]-8-phenyl-pyrazino[2',3':4,5]thieno[3,2-d]pyrimidine-2,4(1H,3H)-dione hydrochloride], the values for the Ki in test [1], in test [2] and in test [3] were 2.15 nM, 0.226 nM and 0.343 nM, respectively.
With `COc1cccc2c1[C@@H]1CN(CCCCn3c(=O)[nH]c4c(sc5nc(-c6ccccc6)cnc54)c3=O)C[C@@H]1CO2` [Example 40, 3-[4-((3aR,9bR)-cis-9-Methoxy-1,2,3,3a,4,9b-hexahydro-[1]-benzopyrano[3,4-c]pyrrol-2-yl)butyl]-7-phenyl-pyrazino[2',3':4,5]thieno[3,2-d]pyrimidine-2,4(1H,3H)-dione hydrochloride], the inhibition constant Ki in test [1] was 7.12 nM; in test [2], 3.02 nM; in test [3] it was 22.8 nM.
The like results for `COc1cccc2c1[C@@H]1CN(CCCCn3c(=O)[nH]c4c(sc5ccncc54)c3=O)C[C@H]1CO2` [Example 41, 3-[4-((3aS,9bR)-trans-9-Methoxy-1,2,3,3a,4,9b-hexahydro-[1]-benzopyrano[3,4-c]pyrrol-2-yl)butyl]-pyrido[3',4':4,5]thieno[3,2-d]pyrimidine-2,4(1H,3H)-dione dihydrochloride] were, in that order, 0.041 nM, 0.031 nM and 0.069 nM.
The like results for `COc1cccc2c1[C@@H]1CN(CCCCn3c(=O)[nH]c4c(sc5cnccc54)c3=O)C[C@H]1CO2` [Example 42, 3-[4-((3aS,9bR)-trans-9-Methoxy-1,2,3,3a,4,9b-hexahydro-[1]-benzopyrano[3,4-c]pyrrol-2-yl)butyl]-pyrido[4',3':4,5]thieno[3,2-d]pyrimidine-2,4(1H,3H)-dione dihydrochloride] were, in that order, 0.066 nM, 0.028 nM and 0.073 nM.
The like results for `COc1cccc2c1[C@@H]1CN(CCCCn3c(=O)[nH]c4c(sc5ncccc54)c3=O)C[C@H]1CO2` [Example 44, 3-[4-((3aS,9bR)-trans-9-Methoxy-1,2,3,3a,4,9b-hexahydro-[1]-benzopyrano[3,4-c]pyrrol-2-yl)butyl]-pyrido[3',2':4,5]thieno[3,2-d]pyrimidine-2,4(1H,3H)-dione hydrochloride] were, in that order, 0.081 nM, 0.043 nM and 0.043 nM.
Consider `COc1cccc2c1[C@@H]1CN(CCCCn3c(=O)[nH]c4c(sc5nc(C)ccc54)c3=O)C[C@H]1CO2` [Example 45, 3-[4-((3aS,9bR)-trans-9-Methoxy-1,2,3,3a,4,9b-hexahydro-[1]-benzopyrano[3,4-c]pyrrol-2-yl)butyl]-7-methyl-pyrido[3',2':4,5]thieno[3,2-d]pyrimidine-2,4(1H,3H)-dione hydrochloride], for which the Ki in test [1] is 0.104 nM; in test [2] it was 0.066 nM; in test [3] it was 0.125 nM.
